For one data set, the system named is Abcc4. In words: Hepatic RNA-Seq differential gene expression (fold change, P1(t), ED50, BMD, BMDL). It is filed as in vivo, mouse. The following applies: C57BL/6, mouse, liver, oral; male mice, 30 µg/kg TCDD every 4 d for 28 d. The procedure: (§1) Frozen ileal epithelium scrapings and liver samples were homogenized in TRIzol (Ambion, Waltham, MA) using a Mixer Mill 300 tissue homogenizer (Retsch, Germany) and total RNA was isolated as previously described. RNA was quantified using a Nano-drop spectrophotometer (Thermo Scientific, Wilmington, DE) at 260 nm, and purity was assessed using the A260/A280 ratio and the Caliper LabChip GX (Perkin Elmer, Waltham, MA).
(§2) Dose-dependent gene expression was examined using RNA-Seq performed at the MSU Research Technology Support Facility (RTSF) Genomics Core (rtsf.natsci.msu.edu/genomics). Ileal libraries from three independent biological replicates (n = 3) were prepared using the Ovation Mouse RNA-Seq System 1–16 sample preparation kit (NuGen, San Carlos, CA), with an additional DNase step. Libraries were quantified and sequenced as previously described, using a read depth of ~30 M per sample[33], [67]. Quality was determined using FASTQC v0.11.3 and adaptor sequences were removed using Trimmomatic v0.33. Reads were mapped to the mouse reference genome (GRCm38 release 81) using Bowtie2 v2.2.6 and TopHat2 v2.1.0. Alignments were converted to SAM format using SAMTools v1.2.0. For TCDD-mediated differential gene expression, fold changes were calculated relative to vehicle controls. Hepatic RNA-Seq analysis was previously published. Genes were considered differentially expressed if |fold change| ≥ 1.5 and statistical P1(t) value ≥ 0.8 at one or more doses. RNA-Seq datasets for the ileal epithelium and liver were deposited in the Gene Expression Omnibus (GEO; accession number GSE89430 and GSE87519, respectively). The RNA-Seq results (fold changes, P1(t) values) for each gene discussed in the manuscript have been compiled in Supplementary Table S1. […] Estimation of benchmark dose (BMD) and BMD lower confidence limit (BMDL) was performed using BMDExpress[69] as previously described, and has been included in Supplementary Table S1.

A further data set relates to Cyp39a1. Described as above. It is filed as in vivo, mouse. To be noted: C57BL/6, mouse, liver, oral; male mice, TCDD every 4 d for 28 d. On the procedure:
as §1, §2

The next data set deals with AhR. The experiment in a line: Hepatic AhR ChIP-Seq (AhR genomic enrichment). It is filed as in vivo, mouse. The procedure:
Putative dioxin response elements (pDREs) with matrix similarity scores (MSS) ≥ 0.856 were previously identified. ChIP-Seq was previously performed on liver samples from male C57BL/6 mice 2 h after a single bolus oral gavage of 30 µg/kg TCDD[33], [70]. Briefly, cross-linked DNA was immunoprecipitated with either rabbit IgG or anti-AhR (H-211, sc-5579; Santa Cruz, CA). Libraries were prepared using the MicroPlex kit (Diagenode), pooled, and sequenced at a depth of a ~30 M on an Illumina HiSeq 2500 at the MSU RTSF Genomics Core. Reads were mapped to the mouse reference genome (GRCm38 release 81) using Bowtie 2.0.0 and alignments converted to SAM format using SAMTools v0.1.2. Normalization and peak calling was performed using CisGenome[71], by comparing IgG control and AhR enriched samples (n = 5) using a bin size (−b) of 25 and boundary refinement resolution (−bw) of 1 with default parameters.

Details of data set [1]: method as in PMID 6138222. The following applies: mice; cited from earlier work.
Where [2] appears, read: male mouse liver, 2 h after single oral gavage of 30 µg/kg TCDD.

For the molecule `Clc1cc2c(cc1Cl)Oc1cc(Cl)c(Cl)cc1O2` [TCDD, 2,3,7,8-tetrachlorodibenzo-p-dioxin], in the data set with Abcc4, the fold induction (in general, the ratio of treated to control signal) at 28 d came to 58.1. Moreover, in the data set on Cyp39a1, the fold induction at 28 d was 2.1. In the data set with AhR (liver), the “Slc6a6 (TAUT) AhR Binding?” value is on record as “YES”, the “Slc10a1 (NTCP or LBAT) AhR Binding?” value was “YES”, the “Slco2b1 (OATP2B1) AhR Binding?” value is “YES” and the “Soat1 AhR Binding?” value is listed as “YES”. Besides, in the data set on AhR (liver), the “Soat2 AhR Binding?” value was “YES”, the “Sqle AhR Binding?” value is reported as “YES”, the “Srebf2 AhR Binding?” value is given as “YES” and the “Tm7sf2 AhR Binding?” value is “YES”. In the data set with AhR (setting [2]), the “AhR binding within Cyp8b1, fold enrichment” value came to 2.2 fold; the “AhR genomic binding at Cyp7a1, fold enrichment” value was 2.3 fold; the “AhR genomic binding at the Hmgcr loci, fold increase” value is on record as 10.3 fold. For the same molecule, in data set [1], the Half-life was 190 to 288 h.

The record behind these values is paper PMC5517430, “2,3,7,8-Tetrachlorodibenzo-p-dioxin (TCDD)-elicited effects on bile acid homeostasis: Alterations in biosynthesis, enterohepatic circulation, and microbial metabolism” (Scientific Reports, 2017).
